US20170315129A1, “CANCER CELL DETECTION METHOD USING LIVING BODY-DERIVED CELLS OF BIOLOGICAL ORIGIN” (Hirosaki University, priority 2014, published 2017)

Test system: ascites cells obtained during an operation of a patient with ovarian cancer (serous adenocarcinoma)
Experiment: Live-cell fluorescence imaging of cells in peritoneal washing, ovarian cancer patient (Example 1)
Type: cell-based, human
Conditions: 100 μM 2-NBDLG and 20 μM 2TRLG in KRB, 5 minutes 37° C., FIG. 2B
Description: Immediately after the start of laparotomy for ovarian cancer (serous adenocarcinoma), the peritoneal cavity was washed with physiological saline for the purpose of collecting an ascitic fluid. A surplus portion of the resulting peritoneal washing was transferred into a 50 mL centrifuge tube. Subsequently, it was centrifuged at 1500 G for 2 minutes at room temperature, the supernatant was removed by decantation, and the pellet was dispersed by adding 2 mL of Krebs Ringer Buffer (KRB solution, see below) to obtain an ascites-cell suspension.
NaCl 129.0 mM, KCl 4.75 mM, KH2PO41.19 mM, MgSO4.7H2O 1.19 mM, CaC12.2H2O 1.0 mM, NaHCO35.02 mM, D-Glucose 5.6 mM, HEPES 10.0 mM (an adequate amount of 1M NaOH was added to adjust the pH to 7.35). […]
For fluorescence observation, observation and image acquisition were performed as follows after mounting the glass pate on a glass-slide holder dedicated for an all-in-one fluorescence microscope BZ-X700 (Keyence Corporation). […] Bright field images and fluorescence images of the target cells were taken at a high magnification of 40× or 100×. Commercially available filters for BZ-X700 were used for fluorescence detection. A GFP filter for BZ-X (green channel, OP-87763, Ex 470/40 nm, Em 525/50 nm, DM 495 nm) was used for fluorescence observation of 2-NBDLG. […]

SMILES: O=C[C@@H](Nc1ccc([N+](=O)[O-])c2nonc12)[C@H](O)[C@@H](O)[C@@H](O)CO [2-NBDLG, 2-[N-(7-nitrobenz-2-oxa-1,3-diazole-4-yl)amino]-2-deoxy-L-glucose]
- fluorescence from 2-NBDLG (green wavelength region) (apparent peritoneal mesothelial cells): do not show fluorescence
- fluorescence from 2-NBDLG (green wavelength region) (morphologically suspected cancer cells): intense fluorescence
